Patent publication US9393316B2, “Cancer targeting peptides for enhancing anti-cancer drug delivery and therapeutic efficiencies” (priority 2014, dated 2016)

Assays:
[1] = test system: HCT116 xenografts; assay: In vivo tumor homing, phage titer in tumor and organs; set-up: species or system mice; conditions: 2×10^11 pfu i.v., PBS perfusion; vs brain, lungs, heart
Experimental: Non-obese diabetic-severe combined immunodeficiency (NOD/SCID) mice were injected subcutaneously (s.c.) into the dorsolateral flank with 5×10^6 HCT116 cells. When the xenograft tumor size reached 300±50 mm^3, the mice were injected intravascularly (i.v.) with 2×10^11 pfu of the targeting phage or control phage M13KO7. Seven min after injection, the mice were sacrificed and perfused through the heart with 50 mL of PBS to wash unbound phages. After perfusion, xenograft tumor and mouse organs were taken out, washed three times with cold PBS, and cut into pans, with some of them homogenized. The phages bound to each tissue sample were recovered by log-phase Escherichia coli ER2738 culture and were titered on LB/IPTG/X-Gal agar plates. In peptide competitive inhibition experiments, 2×10^9 pfu of phage was co-injected with 100 μg of corresponding peptide or an unrelated control peptide.
To investigate the targeting ability of the selected phage clones in vivo, mice bearing HCT116 xenografts (300 mm^3) were injected with 2×10^11 pfu of either the selected phages or control phage through the tail vein. Phages were circulated and then were perfused with PBS buffer to wash out non-specific binders in circulation. After perfusion, we recovered and determined the […] of phage in tumor masses and normal organs.

[2] = test system: HCT116 cells; assay: ELISA screening of phage clones on HCT116 cells (cellular ELISA); type: binding, human; conditions: HCT116, cell line panel
Experimental: (§1) The selected phages were further identified by ELISA screening. 1×10^4 cells were seeded into each well of 96-well ELISA plates (Falcon, Calif., USA) overnight and were fixed with 2% paraformaldehyde or methanol/acetone (1:1) for 10 min at RT. The plates were washed twice with PBS and were blocked with 1% BSA in PBS (w/v) for 30 min at RT. Then individual phage clones were added and incubated for 1 hr at RT. Following washing three times with PBS, the plates were incubated with horseradish peroxidase (HRP)-conjugated mouse anti-M13 phage antibody (GE Healthcare) at 1:2000 dilution for 1 hr at RT. The plates were washed three times with PBS again, and were subsequently incubated with the peroxidase substrate o-phenylenediamine dihydrochloride (OPD; Sigma) plus H2O2. The reaction was terminated by 3 N HCl, and the absorbance was measured using microplate reader (Model 680, BioRad) at 490 nm.

[3] = test system: B16-F10; assay: Cellular ELISA of phage clones; type: binding, mouse
Experimental: as §1, with “nm. To evaluate the binding activities of the three selected phage clones to various human cancer cell lines, cellular ELISA was performed to detect sixteen types of human cancer cell lines, including A498, HTB-10, B16-F10, SKOV3, PC-3, U2OS, 1112SK, […], SAS, H460, MIA Paca-2, HCT116, HUVAC, CL1-5, Mahlavu, and MDA-MB-231.” for “nm.”

[4] = test system: peripheral blood mononuclear cells (PBMC); assay: Flow cytometry binding of phage clones to normal cells; conditions: human PBMC
Experimental: Cells were grown to 70-80% confluence and were harvested with 10 mM EDTA in PBS. Peripheral blood mononuclear cells were prepared by using Ficoll-Paque Plus density gradient separation. After washing and suspending the cells with FACS buffer (PBS containing 1% fetal bovine serum), the cells were incubated for 1 hr at 4° C. with 5×10^9, 1×10^9 cfu individual phage clones or control phage, respectively. After washing twice with FACS buffer, cells were incubated with mouse anti-M13 monoclonal antibody (GE Healthcare) at 1:2000 dilution for 1 hr followed by 30 min with phycoerythrin (PE)-conjugated goat anti-mouse secondary antibody (Jackson ImmunoResearch) at 1:250 dilution at 4° C. The emission fluorescence signals were measured using FACSCantoll (Becton Dickinson) and were analyzed by FlowJo software.

[5] = test system: HCT116 xenografts; assay: Immunohistochemical localization of phages in xenograft tumor and organs; type: in vivo, mice; conditions: tumor vs brain, heart, lungs, colon
Experimental: The tissue samples from in vivo phage homing experiment were embedded in frozen blocks. To evaluate the phage distribution in each tissue by immunohistochemistry, the frozen specimens were cut to 8-μm-thick sections and were collected on coated slides. The slides were washed with cold PBS to remove OCT and were fixed with 4% paraformaldehyde for 10 min at RT. To block endogenous peroxidase activity, the slides were soaked with 3% hydrogen peroxide in methanol for 30 min at RT. The nonspecific antibody binding sites were blocked by immersing the section with 1% BSA in PBS for 30 min at RT. The tissue sections were incubated with mouse anti-M13 monoclonal antibody at 1:250 dilution for 1 hr, followed by adding Super Enhancer reagent (Super SENSITIVE™ Polymer HRP Detection System/DAB, BioGenex) for 20 min and Poly-HRP reagent (BioGenex) for 30 min. After washing, the sections were developed with DAB (3,3′-diaminobenzidine) Chromogen (BioGenex) supplemented with Stable DAB buffer. The reaction was stopped by adding PBS. For nuclei staining, the slides were immersed in hematoxylin for 5 min, and were then mounted with mounting solution to terminate the reaction. The images of sections were taken and analyzed using automated acquisition system (TissueGnostics).

Q: With SSMDIVLRAPLM [HCT74] as the sequence, how does the “phage accumulation in tumor mass vs normal organs (phage titer)” value [1] read?
A: significantly accumulated in the tumor mass

Q: And the “binding by cellular ELISA” value [2]?
A: highly specific binding

Q: And the “binding by cellular ELISA” value [3]?
A: highly specific binding

Q: What about the “binding activity to PBMC (normal cells) by FACS” value [4] of the same sequence?
A: not to normal cells

Q: And the “phage localization by immunostaining of tissue sections” value [5]?
A: selectively localized in tumor tissues

Q: And the “phage localization by immunostaining of tissue sections” value ([5]; listed as HCT-74)?
A: strong accumulated in the tumor
